Reference: PubChem BioAssay (NCI)
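Five concentrations, 48 hours, 96-well plates. TGI marks complete inhibition of growth.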

What was measured:
Experiment in all cases: NCI anticancer screen, dose series, 48 h
SK-OV-3 ovarian = tested on: SK-OV-3 ovarian
UO-31 renal = tested on: UO-31 renal
KM12 colon = tested on: KM12 colon
A498 renal = tested on: A498 renal
SF-295 CNS = tested on: SF-295 CNS
NCI-H522 lung = tested on: NCI-H522 lung
SF-539 CNS = tested on: SF-539 CNS
A549 NSCLC = tested on: A549 NSCLC
SK-MEL-5 melanoma = tested on: SK-MEL-5 melanoma
RXF-631 renal = tested on: RXF-631 renal
RXF 393 renal = tested on: RXF 393 renal
U251 CNS = tested on: U251 CNS
HOP-62 NSCLC = tested on: HOP-62 NSCLC
LXFL 529 NSCLC = tested on: LXFL 529 NSCLC
EKVX NSCLC = tested on: EKVX NSCLC
DLD-1 colon = tested on: DLD-1 colon
K-562 leukemia = tested on: K-562 leukemia
NCI-H460 lung = tested on: NCI-H460 lung
SK-MEL-2 melanoma = tested on: SK-MEL-2 melanoma
TK-10 renal = tested on: TK-10 renal
CCRF-CEM leukemia = tested on: CCRF-CEM leukemia
HT29 colon = tested on: HT29 colon
OVCAR-3 ovarian = tested on: OVCAR-3 ovarian
SK-MEL-28 melanoma = tested on: SK-MEL-28 melanoma
HCT-116 colon = tested on: HCT-116 colon
COLO 205 colon = tested on: COLO 205 colon
UACC-257 melanoma = tested on: UACC-257 melanoma
OVCAR-8 ovarian = tested on: OVCAR-8 ovarian
HL-60(TB) leukemia = tested on: HL-60(TB) leukemia
LOX IMVI melanoma = tested on: LOX IMVI melanoma
HOP-92 NSCLC = tested on: HOP-92 NSCLC
MOLT-4 leukemia = tested on: MOLT-4 leukemia
IGROV1 ovarian = tested on: IGROV1 ovarian
XF 498 CNS = tested on: XF 498 CNS
MALME-3M melanoma = tested on: MALME-3M melanoma
SF-268 CNS = tested on: SF-268 CNS
OVCAR-5 ovarian = tested on: OVCAR-5 ovarian
SNB-19 CNS = tested on: SNB-19 CNS
SW-620 colon = tested on: SW-620 colon
HOP-18 NSCLC = tested on: HOP-18 NSCLC
DMS 273 small cell lung = tested on: DMS 273 small cell lung
RPMI-8226 leukemia = tested on: RPMI-8226 leukemia
KM20L2 colon = tested on: KM20L2 colon
ACHN renal = tested on: ACHN renal
NCI-H23 lung = tested on: NCI-H23 lung
DMS 114 small cell lung = tested on: DMS 114 small cell lung
786-0 renal = tested on: 786-0 renal
SNB-75 CNS = tested on: SNB-75 CNS
HCC-2998 colon = tested on: HCC-2998 colon
CAKI-1 renal = tested on: CAKI-1 renal
M19-MEL melanoma = tested on: M19-MEL melanoma
SN12C renal = tested on: SN12C renal
HCT-15 colon = tested on: HCT-15 colon
OVCAR-4 ovarian = tested on: OVCAR-4 ovarian
SNB-78 CNS = tested on: SNB-78 CNS
M14 melanoma = tested on: M14 melanoma
UACC-62 melanoma = tested on: UACC-62 melanoma
NCI-H226 lung = tested on: NCI-H226 lung
HS 578T breast = tested on: HS 578T breast
MDA-MB-435 = tested on: MDA-MB-435
MCF7 breast = tested on: MCF7 breast
SR leukemia = tested on: SR leukemia
PC-3 prostate = tested on: PC-3 prostate
BT-549 breast = tested on: BT-549 breast
T-47D breast = tested on: T-47D breast
MDA-MB-231 breast = tested on: MDA-MB-231 breast
MDA-N = tested on: MDA-N
NCI/ADR-RES ovarian = tested on: NCI/ADR-RES ovarian
DU-145 prostate = tested on: DU-145 prostate

Measured: TGI

CC(c1cccc2ccccc12)/[N+]([O-])=C/c1ccccc1 (stereo unspecified)
> 100 µM: SK-OV-3 ovarian | UO-31 renal | KM12 colon | A498 renal | SF-295 CNS | NCI-H522 lung | SF-539 CNS | A549 NSCLC | SK-MEL-5 melanoma | RXF-631 renal | RXF 393 renal | U251 CNS | HOP-62 NSCLC | LXFL 529 NSCLC | EKVX NSCLC | DLD-1 colon | K-562 leukemia | NCI-H460 lung | SK-MEL-2 melanoma | TK-10 renal | CCRF-CEM leukemia | HT29 colon | OVCAR-3 ovarian | SK-MEL-28 melanoma | HCT-116 colon | COLO 205 colon | UACC-257 melanoma | OVCAR-8 ovarian | HL-60(TB) leukemia | LOX IMVI melanoma | HOP-92 NSCLC | MOLT-4 leukemia | IGROV1 ovarian | XF 498 CNS | MALME-3M melanoma | SF-268 CNS | OVCAR-5 ovarian | SNB-19 CNS | SW-620 colon | HOP-18 NSCLC | DMS 273 small cell lung | RPMI-8226 leukemia | KM20L2 colon | ACHN renal | NCI-H23 lung | DMS 114 small cell lung | 786-0 renal | SNB-75 CNS | HCC-2998 colon

CCOC(=O)CC1=CSC2=NCCN12
> 100 µM: CAKI-1 renal | SK-OV-3 ovarian | UO-31 renal | KM12 colon | A498 renal | SF-295 CNS | NCI-H522 lung | SF-539 CNS | A549 NSCLC | SK-MEL-5 melanoma | RXF-631 renal | RXF 393 renal | U251 CNS | HOP-62 NSCLC | LXFL 529 NSCLC | EKVX NSCLC | DLD-1 colon | M19-MEL melanoma | K-562 leukemia | NCI-H460 lung | SK-MEL-2 melanoma | TK-10 renal | CCRF-CEM leukemia | HT29 colon | SN12C renal | HCT-15 colon | OVCAR-3 ovarian | OVCAR-4 ovarian | SK-MEL-28 melanoma | HCT-116 colon | COLO 205 colon | UACC-257 melanoma | OVCAR-8 ovarian | HL-60(TB) leukemia | LOX IMVI melanoma | HOP-92 NSCLC | IGROV1 ovarian | XF 498 CNS | SNB-78 CNS | MALME-3M melanoma | SF-268 CNS | OVCAR-5 ovarian | SNB-19 CNS | SW-620 colon | HOP-18 NSCLC | DMS 273 small cell lung | M14 melanoma | UACC-62 melanoma | KM20L2 colon | NCI-H226 lung | ACHN renal | NCI-H23 lung | DMS 114 small cell lung | 786-0 renal | SNB-75 CNS | HCC-2998 colon

C[C@]12CCC(=O)C(O)=C1CC[C@@H]1[C@@H]2CC[C@]2(C)C(=O)CC[C@@H]12
> 100 µM: CAKI-1 renal | SK-OV-3 ovarian | UO-31 renal | KM12 colon | A498 renal | SF-295 CNS | NCI-H522 lung | SF-539 CNS | A549 NSCLC | HS 578T breast | MDA-MB-435 | SK-MEL-5 melanoma | RXF-631 renal | RXF 393 renal | U251 CNS | HOP-62 NSCLC | LXFL 529 NSCLC | EKVX NSCLC | DLD-1 colon | K-562 leukemia | NCI-H460 lung | SK-MEL-2 melanoma | TK-10 renal | CCRF-CEM leukemia | HT29 colon | SN12C renal | HCT-15 colon | MCF7 breast | OVCAR-3 ovarian | SR leukemia | OVCAR-4 ovarian | SK-MEL-28 melanoma | HCT-116 colon | COLO 205 colon | UACC-257 melanoma | OVCAR-8 ovarian | HL-60(TB) leukemia | PC-3 prostate | LOX IMVI melanoma | BT-549 breast | HOP-92 NSCLC | MOLT-4 leukemia | IGROV1 ovarian | T-47D breast | MDA-MB-231 breast | XF 498 CNS | SNB-78 CNS | MALME-3M melanoma | SF-268 CNS | OVCAR-5 ovarian | SNB-19 CNS | SW-620 colon | MDA-N | M14 melanoma | UACC-62 melanoma | RPMI-8226 leukemia | KM20L2 colon | NCI/ADR-RES ovarian | NCI-H226 lung | ACHN renal | NCI-H23 lung | DMS 114 small cell lung | 786-0 renal | SNB-75 CNS | DU-145 prostate | HCC-2998 colon
